In ChEMBL document CHEMBL2311302, “Synthesis and evaluation of 5'-modified thymidines and 5-hydroxymethyl-2'-deoxyuridines as Mycobacterium tuberculosis thymidylate kinase inhibitors” (Bioorg Med Chem, 2013) one finds Ki and inhibition data, which are given here for six compounds.

One assay addresses T1, Thymidylate kinase (Mycobacterium tuberculosis, UniProt P9WKE1).
T1 sequence (P9WKE1 whole entry): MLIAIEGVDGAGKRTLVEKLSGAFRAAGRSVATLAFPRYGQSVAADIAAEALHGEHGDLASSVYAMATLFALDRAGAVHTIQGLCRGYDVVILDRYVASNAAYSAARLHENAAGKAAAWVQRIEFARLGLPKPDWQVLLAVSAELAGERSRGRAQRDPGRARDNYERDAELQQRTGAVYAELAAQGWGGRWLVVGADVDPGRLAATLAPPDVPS
Briefly: Inhibition of Mycobacterium tuberculosis thymidine monophosphate kinase by enzyme-coupling based spectrophotometric assay.

The target of assay [1] is T2, Thymidylate kinase (Mycobacterium tuberculosis) (UniProt P9WKE1).
T2 sequence (whole entry): T1 sequence (P9WKE1 whole entry)
Put plainly: Inhibition of Mycobacterium tuberculosis thymidine monophosphate kinase at 2.4 mM by enzyme-coupling based spectrophotometric assay.

Assay [2] concerns the target T2, Thymidylate kinase (Mycobacterium tuberculosis). Put plainly: Inhibition of Mycobacterium tuberculosis thymidine monophosphate kinase at 2.6 mM by enzyme-coupling based spectrophotometric assay.

Active and inactive are the calls of the source. No cut-off for these calls is given here.

`Cc1cn([C@H]2C[C@H](O)[C@@H](CCS(C)(=O)=O)O2)c(=O)[nH]c1=O` gave a Ki on Thymidylate kinase of 340 µM.
For `O=c1[nH]c(=O)n([C@H]2C[C@H](O)[C@@H](CCc3nnn[nH]3)O2)cc1CO`, the inhibition entry in assay [1] is “inactive”.
In turn, `CNS(=O)(=O)CC[C@H]1O[C@@H](n2cc(C)c(=O)[nH]c2=O)C[C@@H]1O` displayed a Ki at Thymidylate kinase of 240 µM.
Same read-out and setting: the same measure for `Cc1cn([C@H]2C[C@H](O)[C@@H](CCC#N)O2)c(=O)[nH]c1=O`: 48 µM; for `Cc1cn([C@H]2C[C@H](O)[C@@H](CCc3nnn[nH]3)O2)c(=O)[nH]c1=O`: 70 µM.
As to `N#CCC[C@H]1O[C@@H](n2cc(CO)c(=O)[nH]c2=O)C[C@@H]1O`, the inhibition entry in assay [2] was “inactive”.
